Holding throughout (type): cell-based, human
The subject of one test is HIF-1α–NanoLuc. The experiment in a line: HIF-1α–NanoLuc reporter gene assay (qHTS primary and confirmatory screens). As to conditions: for Effect on HIF-1α–NanoLuc level / luciferase activity, in words: HCT116 reporter cells.
A further test deals with HRE–bla ME-180 cells. The experiment in a line: Viability (BLA): CellTiter-Glo counter screen in HRE–bla cells. As to conditions: Table S7, 1% O2, 18 h.
The subject of test [1] is hypoxia response element-beta-lactamase (HRE–bla). The experiment in a line: HRE-bla reporter gene assay in ME-180 cells. As to conditions: for Emax / IC50: Homo sapiens, ME-180, Table S7, confirmatory screen; for Emax: read-out: HRE–bla confirmatory Efficacy; for IC50: read-out: HRE–bla confirmatory IC50; for Effect on HRE–bla transcriptional activity, in words: ME-180 cells.
Experimental: (§1) Cell culture of HRE–bla ME-180 cells (Cat. No. K1644, Life Technologies) and HRE–bla assay were conducted according to a reported protocol [6]. […] The fluorescence signals (460/25 nm and 530/20 nm) of CCF4 and luminescence signals of CellTiter-Glo were acquired on an Envision and a ViewLux plate readers (Perkin Elmer), respectively.

The mark [2] stands for this setting: Table S2, validation, read-out: Pathway inhibitors (validation) HIF-1α–NanoLuc Activity IC50.
The mark [3] stands for this setting: Homo sapiens, Table S1, primary screen, hypoxia 1% O2, 18 h, read-out: IC50 (primary screen, HIF-1α–NanoLuc assay).
The mark [4] stands for this setting: Homo sapiens, Table S1, primary screen, read-out: Efficacy (primary screen, HIF-1α–NanoLuc assay).
Setting [5] is: Homo sapiens, Table S2, validation, read-out: Pathway inhibitors (validation) HIF-1α–NanoLuc Activity Efficacy.
[6] abbreviates: Homo sapiens, Table S2, validation, read-out: Pathway inhibitors (validation) HIF-1α–NanoLuc Activity IC50.

“Also recorded” adds a separate entry of the source. Read-outs that look alike come from different tables or passages of the source.

Experimental for HRE–bla ME-180 cells: as §1

For the molecule `COc1cc([C@@H]2c3cc4c(cc3[C@H](O)[C@H]3COC(=O)[C@@H]23)OCO4)cc(OC)c1OC` [Picropodphyllin], in the test on HIF-1α–NanoLuc (Table S2, primary screen), the “Pathway inhibitors (primary screen) HIF-1α–NanoLuc Activity Efficacy” value was 159%. The IC50 with HIF-1α–NanoLuc (Table S2, primary screen, read-out: Pathway inhibitors (primary screen) HIF-1α–NanoLuc Activity IC50) was 0.53 µM; in the test on HIF-1α–NanoLuc (setting [2]), 0.53 µM. The “Pathway inhibitors (validation) HIF-1α–NanoLuc Activity Efficacy” value in the test on HIF-1α–NanoLuc (Table S2, validation) was 159%.

Take `COc1cccc2c1C(=O)c1c(O)c3c(c(O)c1C2=O)C[C@@](O)(C(=O)CO)C[C@@H]3O[C@H]1C[C@H](N)[C@H](O[C@@H]2CCCCO2)[C@H](C)O1` [Pirarubicin]: the IC50 in the test on HIF-1α–NanoLuc (setting [3]) was 11.9 µM. The Emax in the test on HIF-1α–NanoLuc (setting [4]) was 97%.

As for `O=c1c(O)c(-c2ccc(O)c(O)c2)oc2cc(O)cc(O)c12` [Quercetine], the “Viability (BLA) confirmatory IC50” value in the test with HRE–bla ME-180 cells is on record as “Inactive”. In test [1], the Emax came out at 84 ± 10% and the IC50 was found to be 12.8 ± 0.84 µM.

With `C=C(C)[C@H]1Cc2c(ccc3c2O[C@@H]2COc4cc(OC)c(OC)cc4[C@@H]2C3=O)O1` [Rotenone], the IC50 in the test on HIF-1α–NanoLuc (Homo sapiens, 18 h, read-out: IC50 (primary screen, HIF-1α–NanoLuc assay)) was 0.19 µM. Moreover, the Emax in the test on HIF-1α–NanoLuc (Homo sapiens, read-out: Efficacy (primary screen, HIF-1α–NanoLuc assay)) was determined as 91%.

Consider `Cc1cc(C)c(/C=C2\C(=O)Nc3ccccc32)[nH]1` [SU-5416], for which the “Viability (BLA) confirmatory IC50” value with HRE–bla ME-180 cells is recorded as “Inactive”. For the same molecule, in test [1], the Emax worked out at 111 ± 12% and the IC50 is 12.8 ± 0.84 µM.

Turning to `Cc1ccc(C(=O)Nc2ccc(S(=O)(=O)O)c3cc(S(=O)(=O)O)cc(S(=O)(=O)O)c23)cc1NC(=O)c1cccc(NC(=O)Nc2cccc(C(=O)Nc3cc(C(=O)Nc4ccc(S(=O)(=O)O)c5cc(S(=O)(=O)O)cc(S(=O)(=O)O)c45)ccc3C)c2)c1` [Suramin], the Emax with HIF-1α–NanoLuc (setting [5]) stood at 41 ± 7%. Besides, the concentration for half-maximal inhibition (IC50) in the test on HIF-1α–NanoLuc (setting [6]) worked out at 24.5 ± 3.13 µM.

On to `N#Cc1c(Oc2ccc(F)c(NC(=O)Cc3cccc(C(F)(F)F)c3)c2)ccc2nc(NC(=O)C3CC3)sc12` [TAK-632], for which the “Pathway inhibitors (validation) HIF-1α–NanoLuc Activity Efficacy” value in the test on HIF-1α–NanoLuc (Table S2, validation) is given as 85 ± 2%. Moreover, in the test on HIF-1α–NanoLuc (setting [2]), the half-inhibitory concentration (IC50) came to 1.41 ± 0.23 µM.

For `COC(=O)C1=C(C)NC(C)=C(C(=O)OCCc2ccc(N3CCN(C(c4ccccc4)c4ccccc4)CC3)cc2)C1c1cccc([N+](=O)[O-])c1` (stereo not shown) [Vatanidipine], the half-maximal inhibitory concentration (IC50) in the test with HIF-1α–NanoLuc (setting [3]) was determined as 1.19 µM. In addition, the Emax with HIF-1α–NanoLuc (setting [4]) worked out at 103%.

Take `CC[C@@H]1C(=O)N(C)c2cnc(Nc3ccc(C(=O)N[C@H]4CC[C@H](N5CCN(CC6CC6)CC5)CC4)cc3OC)nc2N1C(C)C` [Volasertib]: in the test on HIF-1α–NanoLuc (setting [5]), the Emax came to 78 ± 14%. In addition, in the test with HIF-1α–NanoLuc (setting [6]), the IC50 came out at 9.57 ± 5.6 µM.

As for `O=C(CCCCCCC(=O)Nc1ccccc1)NO` [Vorinostat], the Emax with HIF-1α–NanoLuc (setting [4]) stood at 51%.

With `OCc1ccc(-c2nn(Cc3ccccc3)c3ccccc23)o1` [YC-1], in the test on HIF-1α–NanoLuc, the “Effect on HIF-1α–NanoLuc level / luciferase activity, in words” value was “decrease in luciferase expression in a concentration response manner”.

`CC(C)C[C@H](NC(=O)[C@H](Cc1ccccc1)NC(=O)c1cnccn1)B(O)O` [bortezomib]: in test [1], the “Effect on HRE–bla transcriptional activity, in words” value was “inhibited the transcriptional activity of HRE–bla”. Moreover, the “Effect on HIF-1α–NanoLuc level / luciferase activity, in words” value with HIF-1α–NanoLuc was “resulted in protein accumulation and increased luciferase activity; also recorded: potently induced accumulation of HIF-1α–NanoLuc proteins”.

As for `CC(C)C[C@H](NC(=O)[C@H](CCc1ccccc1)NC(=O)CN1CCOCC1)C(=O)N[C@@H](Cc1ccccc1)C(=O)N[C@@H](CC(C)C)C(=O)[C@@]1(C)CO1` [carfilzomib], in test [1], the “Effect on HRE–bla transcriptional activity, in words” value is “inhibited the transcriptional activity of HRE–bla”. The “Effect on HIF-1α–NanoLuc level / luciferase activity, in words” value in the test with HIF-1α–NanoLuc is on record as “potently induced accumulation of HIF-1α–NanoLuc proteins”.

The values above are taken from article PMC4884984, “Identification of approved and investigational drugs that inhibit hypoxia-inducible factor-1 signaling” (Oncotarget, 2016).
